We go through 100 compounds from PubChem BioAssay AID488890 (Southern Research Specialized Biocontainment Screening …, 2010).

In the assay the test system is Mycobacterium tuberculosis non-replicating, growth inhibition. The experiment in a line: growth inhibition of non-replicating M. tuberculosis (AID 488890).

Records with an inconclusive call do not appear. Active and inactive are the calls of the source. No rule for the calls is given here.

By IC50 is commonly meant the concentration that gives 50% inhibition. As to `O=C(OCC#CCSc1nnc(-c2ccncc2)o1)c1cccs1`, the IC50 is 4.13 µM. As for `N[C@@H](Cc1ccccc1)c1nnc(SC/C=C/c2ccccc2)o1`, the IC50 was 3.49 µM. For the compound `COc1ccc(OC)c(NC(=O)C(=O)NNC(=O)C23CC4CC(CC(C4)C2)C3)c1`, the concentration for half-maximal inhibition (IC50) is 5.4 µM.

Regarding `CCc1nnc(NC(=O)CN2CCN(Cc3ccc(F)cc3)CC2)s1`, the IC50 is 47 µM (inactive). `CCOC(=O)C1CCN(Cc2ccc(-c3ccccc3)cc2)CC1`: the IC50 is 44 µM (inactive). In the case of `COc1cccc(COC(=O)CCNC(=O)c2ccc(Cl)cc2)c1OC`, the IC50 was 11.8 µM (inactive). Consider `CCCCN(CC)S(=O)(=O)c1ccc(C(=O)Nc2nnc(-c3cccs3)o2)cc1`, for which the IC50 was 11.3 µM (inactive). For `CCC(=O)Nc1nc2ccccc2n1Cc1ccccc1`, the IC50 was 4.86 µM.

In the case of `O=C(COc1ccc2ccccc2c1)Nc1nccs1`, the IC50 is 5.88 µM. With `CCOc1cc(/C=N/NC(=O)c2ccccn2)ccc1OC(=O)c1cccs1`, the IC50 is 5.55 µM. `Cc1nn2c(NCc3ccccn3)cc(C(C)C)nc2c1-c1ccccc1`: the concentration for half-maximal inhibition (IC50) was 1.44 µM. To `O=C(CCN1CCOCC1)c1ccc(Br)cc1` belongs 3.83 µM; to `O=C(C/C=N\OCc1ccc([N+](=O)[O-])cc1)Nc1ccc(F)cc1F`, 9.1 µM.

As to `COc1ccc(C2(O)CCN(CCCCOc3ccccc3)CC2)cc1`, the IC50 was 18.1 µM (inactive). Take `OCC1(CCOc2ccccc2)CCN(Cc2cc(Cl)ccc2O)CC1`: the IC50 was 24.1 µM (inactive). To `O=c1cc(-c2ccccc2Cl)oc2ccc([N+](=O)[O-])c(O)c12` belongs 1.59 µM; to `O=C(N/N=C/c1ccc[nH]1)c1ccc2c(c1)OCO2`, 8.98 µM. The result for `O=c1c(O)c(-c2cccs2)oc2ccc(Cl)cc12` reads 1.08 µM. To `Cc1ccccc1NC(=O)c1ccc([N+](=O)[O-])o1` belongs 7.05 µM; to `CN=C1S/C(=C\c2ccc(OCC(=O)OC)c(OC)c2)C(=O)N1C`, 16.5 µM (inactive); to `CC(NC(=O)c1cccc(F)c1)C1CC2CCC1C2` (stereo not given), 0.16 µM. As for `O=C(O)CCCCCN1C(=O)/C(=C\c2ccncc2)SC1=S`, the IC50 is 11.2 µM (inactive).

Take `Nn1c(SCCOc2ccc(Cl)cc2)nnc1-c1cccnc1`: the IC50 was 23.5 µM (inactive).

For the compound `CN1C(=O)/C(=C/c2cccc(Cl)c2)Sc2ccc(C(=O)N3CCCC3)cc21`, the IC50 was 22 µM (inactive).

For `O=C(N/N=C/c1ccccc1O)c1cccc(C(F)(F)F)c1`, the IC50 is less than 0.1 µM. The result for `CC(C)(C)NC(=O)C(=O)NNC(=O)c1ccc(C(C)(C)C)cc1` reads 5.82 µM.

For `CC(C)CCC1=NN(C(=O)c2ccco2)C(O)(C(F)(F)F)C1` (stereo not given), the 50% inhibitory concentration (IC50) is 0.94 µM. The result for `Clc1cccc(CNCCNCc2cccc(Cl)c2)c1` reads 12.1 µM (inactive).

For the compound `Cc1nnc(N/N=C/c2ccc(-c3ccc(Br)cc3)o2)n1N`, the half-maximal inhibitory concentration (IC50) is 3.49 µM. `O=C(N/N=C/c1cccc([N+](=O)[O-])c1O)c1cccs1`: the IC50 was 2.34 µM. The result for `O=C1/C(=C/c2ccco2)CCC1C1CCCC1` (stereo not given) reads 13.8 µM (inactive); that for `Clc1ccc(SCCOCCN2CCc3ccccc3C2)cc1`, 13.5 µM (inactive). For `O=C(N=Nc1c(O)[nH]c2ccc(Br)cc12)c1ccccc1-n1cccc1`, the half-maximal inhibitory concentration (IC50) was 5.94 µM. In the case of `COC(=O)c1ccc(CSc2nnc(-c3ccncc3)o2)o1`, the half-inhibitory concentration (IC50) was 7.22 µM.

In the case of `CC1CCN(C(=O)COC(=O)c2cc3ccccc3cc2O)CC1`, the IC50 is 2.04 µM. The result for `O=c1c2cc(Br)ccc2nc(-c2cccc(C(F)(F)F)c2)n1O` reads 0.43 µM. Regarding `O=C(N/N=C/c1ccccn1)c1cccc(S(=O)(=O)Nc2ccccc2Cl)c1`, the IC50 is 15.1 µM (inactive).

In the case of `Cc1cccc(Cc2cnc(NC(=O)C3=NCCN3)s2)c1`, the IC50 was 4.82 µM. The result for `O=c1c2c(nc3c(-c4ccc(Cl)cc4)c[nH]n13)CCC2` reads 4.22 µM; that for `Cc1cc2nc(/N=C(\N)NC(=O)C(C)C)nc(C)c2cc1C`, 3.1 µM. On to `CCOc1ccc(C(=O)Nc2ccc(N3CCN(C)CC3)cc2)cc1Br`, for which the IC50 was 30.5 µM (inactive). To `COc1ccccc1-n1c(=O)oc2ccc(Cl)cc2c1=O` belongs 12 µM (inactive); to `Cc1cccc(-c2nnc3sc(-c4ccccc4C)nn23)c1`, 22.4 µM (inactive); to `CCCOC(=O)c1ccc(NC(=O)c2ccccc2OC)cc1`, 18.1 µM (inactive). For the compound `S=C1CN=C(c2ccccc2)c2cc(Cl)ccc2N1`, the IC50 is 8.42 µM. `c1ccc(OCc2nn3c(-c4ccccn4)nnc3s2)cc1`: the IC50 was 23 µM (inactive). To `Cn1c(NC(=O)c2ccccc2)nc2ccccc21` belongs 2.7 µM; to `CC12CC3CC(C)(C1)CC(C(=O)N1CCCC1)(C3)C2`, 24 µM (inactive). In the case of `Cc1ccc(C(=O)CCNc2ccc(F)c(Cl)c2)o1`, the IC50 was 11 µM (inactive). For `N#C/C(N=Nc1ccccc1O)=N\Nc1ccccc1O`, the IC50 was 2.67 µM.

With `CCOC(=O)COc1cc([N+](=O)[O-])cc2cccnc12`, the IC50 was 25.5 µM (inactive). The result for `OC(COc1ccccc1Cl)CN1CCN(CC(O)COc2ccccc2Cl)CC1` (stereo not given) reads 19 µM (inactive); that for `Cc1cc(C(=O)N/N=C/c2ccc([N+](=O)[O-])s2)n[nH]1`, 3.31 µM; that for `CC1=NN(C(=O)c2csc(C(C)C)c2)C(O)(C(F)(F)F)C1` (stereo not given), 0.36 µM.

With `O=C(COc1ccccc1)Nc1nnc(-c2ccc(Cl)cc2)o1`, the IC50 was 21.9 µM (inactive). The result for `CCCC(=O)Nc1cccc(-c2nc3ccccc3c(=O)o2)c1` reads 0.97 µM; that for `Cc1ccc(NC(C)C(=O)N/N=C/c2ccc([N+](=O)[O-])s2)cc1` (stereo not given), 5.74 µM. For `CC(C)(C)NCc1cc(Br)ccc1OCc1cccs1`, the IC50 was 9.07 µM. Take `CCOc1ccc(NC(=O)CCC(=O)N/N=C/c2ccc([N+](=O)[O-])s2)cc1`: the half-maximal inhibitory concentration (IC50) was 8.29 µM. To `Cc1ccc(NC(=O)COc2ccccc2)cc1Cl` belongs 9.92 µM. In the case of `Cc1csc(=Nc2cccnc2)n1CC1CCCCC1`, the IC50 is 17.5 µM (inactive).

For the compound `COc1cc(CNCCc2ccccc2)cc(Cl)c1OCc1ccccc1`, the IC50 is 7.43 µM. `Cc1ccc(NC(=O)COCC(=O)Nc2ccc(C)cc2)cc1`: the IC50 was 14.6 µM (inactive). To `O=C(COc1ccc(Cl)cc1)Nc1ccc2[nH]ncc2c1` belongs 26.5 µM (inactive); to `O=C(Cc1ccccc1)Nc1ccc(C(=O)NCC2COc3ccccc3O2)cc1` (stereo not given), 28.3 µM (inactive). On to `Cc1ccc2[nH]c3c(c2c1)CCCC3NCCO` (stereo not given), for which the IC50 is 13.7 µM (inactive). Turning to `Cc1ccccc1-n1ncc2c([N+](=O)[O-])cc([N+](=O)[O-])cc21`, the IC50 is 4.83 µM. As to `COc1ccc(C(=O)C(CN2CCCC2)c2ccccc2)cc1` (stereo not given), the IC50 was 5.58 µM. With `Cc1ccc(/C=N/NC(=O)C2COc3ccccc3O2)s1` (stereo not given), the IC50 is 0.7 µM. The result for `COc1cccc(-c2cc3nc4c(c(NCC(C)(C)CN(C)C)n3n2)CCCC4)c1` reads 26.2 µM (inactive); that for `CN(C)c1ccc(NC(=O)COC(=O)c2cc(Cl)ccc2[N+](=O)[O-])cc1`, 8.95 µM; that for `O=C(Cc1ccc(F)cc1)Nc1ccc(Cl)cn1`, 14.2 µM (inactive). The result for `O=C(N/N=C/c1ccccn1)c1ccccc1` reads 14.6 µM (inactive); that for `COC(=O)COc1ccc2cc(-c3ccc(OC)cc3)c(=O)oc2c1`, 1.41 µM. To `CN1CCC(O)(c2cccs2)C(C(=O)c2cccs2)C1` (stereo not given) belongs 2.35 µM.

Consider `CC(C)(C)NC(=O)c1ccc(NC(=O)c2ccccc2-c2ccccc2C(=O)O)cc1`, for which the half-inhibitory concentration (IC50) was 3.71 µM. On to `COc1ccc(N=Cc2nc(-c3ccccc3)oc2OC(C)=O)cc1`, for which the IC50 is 17.4 µM (inactive).

Regarding `COC(=O)C1=C(C(=O)OC)C(c2cc(Cl)ccc2O)c2sc(=O)[nH]c2S1` (stereo not given), the IC50 is 34.9 µM (inactive). On to `C/C(=N/NC(=O)c1ccncc1)C1=C(O)CC(C)(C)CC1=O`, for which the IC50 was 13 µM (inactive). The result for `Cc1ccc2nc(N(CCCN(C)C)C(=O)c3ccc4c(c3)CCCC4)sc2c1` reads 14.5 µM (inactive); that for `c1ccc2cc(OCCCn3ccnc3)ccc2c1`, 16.5 µM (inactive); that for `Cc1ccc(NCCC(=O)c2cccs2)cc1Cl`, 3.56 µM. `Cc1c(-c2ccc(Br)cc2)nc2ccccn12`: the IC50 was 18.9 µM (inactive). With `CC(C)(C)c1csc(NC(=O)c2ccccc2O)n1`, the IC50 is 19.6 µM (inactive).

For the compound `NC(=O)C1(N2CCCCC2)CCN(C2CC(=O)N(CCc3ccccc3)C2=O)CC1` (stereo not given), the IC50 is 13 µM (inactive). The result for `O=C(CCS(=O)(=O)c1ccccc1)Nc1nnc(-c2ccco2)o1` reads 7.69 µM; that for `CCOC(=O)c1cnc(Nc2nc3ccccc3o2)nc1CSC(=S)N1CCCCC1`, 1.49 µM. To `CCCCCCCCCCn1cc(C(C)=O)c(=O)[nH]c1=O` belongs 4.74 µM. The result for `O=C1c2cccc3c([N+](=O)[O-])ccc(c23)C(=O)N1c1ccc(Cl)cn1` reads 0.69 µM.

With `O=C(OCC(=O)N1CCC(c2ccccc2)=N1)c1ccc([N+](=O)[O-])s1`, the half-maximal inhibitory concentration (IC50) was 0.61 µM. As for `CCC(=O)Nc1nc2ccccc2n1Cc1ccc(Cl)cc1`, the half-inhibitory concentration (IC50) was 0.84 µM. As to `Nc1c(Cl)cc(Cl)cc1C(=O)OCC(=O)N1CCCC1`, the half-maximal inhibitory concentration (IC50) is 2.46 µM. The result for `Cc1ccc(S(=O)(=O)CCC(=O)Nc2nc(-c3ccncc3)cs2)cc1` reads 14.6 µM (inactive). To `O=C1/C(=C/C=C/c2ccccc2)Oc2c1ccc(O)c2CN1CCN(CCO)CC1` belongs 36.8 µM (inactive); to `C/C(=N\NC(=O)c1cc2ccccc2cc1O)c1ccc(C)o1`, 2.04 µM.

For `Cc1ccc(/C(O)=C/c2nc3ccccc3oc2=O)cc1`, the IC50 was 4.77 µM. The result for `Cc1ccc(NC(=O)C(=O)NNC(=O)c2ccccc2C)cc1Cl` reads 2.67 µM; that for `CC(C)(C)c1cc(CN2CCN(CCO)CC2)cc(C(C)(C)C)c1O`, 3.78 µM. For `O=C(Nc1ccc(F)cc1F)c1cc2ccccc2oc1=O`, the IC50 is 25.1 µM (inactive). The result for `Cc1cccc(NC(=O)COc2ccc(Br)cc2)n1` reads 7.08 µM.
